Organism: Rattus norvegicus
Experiment: DrugMatrix - Regimen: Daily Repeat
Format: toxicity, organism-based, Sprague-Dawley
Design: regimen Daily Repeat, gender Male, age 6-8 weeks
Conditions: in vivo, iv, vehicle 100 % SALINE; for URIC ACID / ALANINE AMINOTRANSFERASE / ALBUMIN / ALKALINE PHOSPHATASE / ASPARTATE AMINOTRANSFERASE / BLOOD UREA NITROGEN / CARBON DIOXIDE / CHLORIDE / CHOLESTEROL / CREATINE PHOSPHOKINASE / CREATININE / GLUCOSE / LACTATE DEHYDROGENASE / LIPASE / PHOSPHORUS / POTASSIUM / SODIUM / TOTAL BILIRUBIN / TOTAL PROTEIN: tissue Plasma; for ABSOLUTE BASOPHIL / ABSOLUTE EOSINOPHIL / ABSOLUTE LYMPHOCYTE / ABSOLUTE MONOCYTE / ABSOLUTE SEGMENTED NEUTROPHIL / BASOPHIL / EOSINOPHIL / ERYTHROCYTE COUNT / HEMATOCRIT / HEMOGLOBIN / LEUKOCYTE COUNT / LYMPHOCYTE / MEAN CORPUSCULAR HEMOGLOBIN / MEAN CORPUSCULAR HEMOGLOBIN CONCENTRATION / MEAN CORPUSCULAR VOLUME / MONOCYTE / NEUTROPHIL / NUCLEATED RED BLOOD CELLS / PLATELET COUNT: tissue Blood
[1] = 2 mg/kg, 120 h, dose level Low, time 5 day
[2] = 44 mg/kg, 72 h, dose level High, time 3 day
[3] = 44 mg/kg, 120 h, dose level High, time 5 day

For `Cc1ccc(N(CC2=NCCN2)c2cccc(O)c2)cc1` [PHENTOLAMINE], the “URIC ACID” value (2 mg/kg, 72 h, dose level Low, time 3 day) was 1.4 mg/dL, the “ABSOLUTE BASOPHIL” value [1] was 0 CELLS/uL and the “ABSOLUTE EOSINOPHIL” value [1] was 0 CELLS/uL. The “ABSOLUTE LYMPHOCYTE” value [1] was 13096 CELLS/uL, the “ABSOLUTE MONOCYTE” value [1] was 288 CELLS/uL and the “ABSOLUTE SEGMENTED NEUTROPHIL” value [1] was 1016 CELLS/uL. For the same compound, the BASOPHIL [1] was 0%, the EOSINOPHIL [1] was 0% and the “ERYTHROCYTE COUNT” value [1] was 6.03 x10E6/uL. The HEMATOCRIT [1] was 38.17%, the HEMOGLOBIN [1] was 14.2 G/DL and the “LEUKOCYTE COUNT” value [1] was 14.4 x10E3/uL. For the same compound, the LYMPHOCYTE [1] was 91%, the “MEAN CORPUSCULAR HEMOGLOBIN” value [1] was 23.53 pg and the “MEAN CORPUSCULAR HEMOGLOBIN CONCENTRATION” value [1] was 37.2 G/DL. For the same compound, the “MEAN CORPUSCULAR VOLUME” value [1] was 63.3 fL, the MONOCYTE [1] was 2% and the NEUTROPHIL [1] was 7%. For the same compound, the “NUCLEATED RED BLOOD CELLS” value [1] was 0.67 /100WBC, the “PLATELET COUNT” value [1] was 1406 x10E3/uL and the “ALANINE AMINOTRANSFERASE” value [1] was 51.67 u/L. For the same compound, the ALBUMIN [1] was 4.47 G/DL, the “ALKALINE PHOSPHATASE” value [1] was 440 u/L and the “ASPARTATE AMINOTRANSFERASE” value [1] was 80 u/L. The “BLOOD UREA NITROGEN” value [1] was 16.67 mg/dL, the “CARBON DIOXIDE” value [1] was 20.33 mmol/L and the CHLORIDE [1] was 102.67 MEQ/L. For the same compound, the CHOLESTEROL [1] was 64.33 mg/dL, the “CREATINE PHOSPHOKINASE” value [1] was 255.33 u/L and the CREATININE [1] was 0.17 mg/dL. For the same compound, the GLUCOSE [1] was 170.33 mg/dL, the “LACTATE DEHYDROGENASE” value [1] was 112.33 u/L and the LIPASE [1] was 10 u/L. It also gave a PHOSPHORUS [1] of 12.37 mg/dL, a POTASSIUM [1] of 6.89 MEQ/L and an SODIUM [1] of 145.97 MEQ/L. The “TOTAL BILIRUBIN” value [1] was 0.23 mg/dL, the “URIC ACID” value [1] was 1.8 mg/dL and the “ABSOLUTE BASOPHIL” value [2] was 0 CELLS/uL. The “ABSOLUTE EOSINOPHIL” value [2] was 0 CELLS/uL, the “ABSOLUTE LYMPHOCYTE” value [2] was 13788 CELLS/uL and the “ABSOLUTE MONOCYTE” value [2] was 136.33 CELLS/uL. For the same compound, the “ABSOLUTE SEGMENTED NEUTROPHIL” value [2] was 1109 CELLS/uL, the BASOPHIL [2] was 0% and the EOSINOPHIL [2] was 0%. The “ERYTHROCYTE COUNT” value [2] was 5.51 x10E6/uL, the HEMATOCRIT [2] was 35.77% and the HEMOGLOBIN [2] was 13.13 G/DL. For the same compound, the “LEUKOCYTE COUNT” value [2] was 15.03 x10E3/uL, the LYMPHOCYTE [2] was 91.33% and the “MEAN CORPUSCULAR HEMOGLOBIN” value [2] was 23.9 pg. The “MEAN CORPUSCULAR HEMOGLOBIN CONCENTRATION” value [2] was 36.73 G/DL, the “MEAN CORPUSCULAR VOLUME” value [2] was 65 fL and the MONOCYTE [2] was 1%. For the same compound, the NEUTROPHIL [2] was 7.67%, the “NUCLEATED RED BLOOD CELLS” value [2] was 0.67 /100WBC and the “PLATELET COUNT” value [2] was 1392 x10E3/uL. For the same compound, the “ALANINE AMINOTRANSFERASE” value [2] was 54.67 u/L, the ALBUMIN [2] was 4.3 G/DL and the “ALKALINE PHOSPHATASE” value [2] was 373 u/L. The “ASPARTATE AMINOTRANSFERASE” value [2] was 66.67 u/L, the “BLOOD UREA NITROGEN” value [2] was 17.33 mg/dL and the “CARBON DIOXIDE” value [2] was 20.33 mmol/L. The CHLORIDE [2] was 100.67 MEQ/L, the CHOLESTEROL [2] was 81.33 mg/dL and the “CREATINE PHOSPHOKINASE” value [2] was 188.33 u/L. For the same compound, the CREATININE [2] was 0.22 mg/dL, the GLUCOSE [2] was 163.67 mg/dL and the “LACTATE DEHYDROGENASE” value [2] was 78 u/L. For the same compound, the LIPASE [2] was 10.67 u/L, the PHOSPHORUS [2] was 10.77 mg/dL and the POTASSIUM [2] was 6.6 MEQ/L. For the same compound, the SODIUM [2] was 143.67 MEQ/L, the “TOTAL BILIRUBIN” value [2] was 0.23 mg/dL and the “TOTAL PROTEIN” value [2] was 6.03 G/DL. The “URIC ACID” value [2] was 1.53 mg/dL, the “ABSOLUTE BASOPHIL” value [3] was 0 CELLS/uL and the “ABSOLUTE EOSINOPHIL” value [3] was 0 CELLS/uL. The “ABSOLUTE LYMPHOCYTE” value [3] was 13982.67 CELLS/uL, the “ABSOLUTE MONOCYTE” value [3] was 349.33 CELLS/uL and the “ABSOLUTE SEGMENTED NEUTROPHIL” value [3] was 3068 CELLS/uL. For the same compound, the BASOPHIL [3] was 0%, the EOSINOPHIL [3] was 0% and the “ERYTHROCYTE COUNT” value [3] was 5.76 x10E6/uL. For the same compound, the HEMATOCRIT [3] was 36.83%, the HEMOGLOBIN [3] was 13.87 G/DL and the “LEUKOCYTE COUNT” value [3] was 17.4 x10E3/uL. For the same compound, the LYMPHOCYTE [3] was 81.33%, the “MEAN CORPUSCULAR HEMOGLOBIN” value [3] was 24.1 pg and the “MEAN CORPUSCULAR HEMOGLOBIN CONCENTRATION” value [3] was 37.67 G/DL. The “MEAN CORPUSCULAR VOLUME” value [3] was 64.07 fL, the MONOCYTE [3] was 2% and the NEUTROPHIL [3] was 16.67%. The “NUCLEATED RED BLOOD CELLS” value [3] was 0 /100WBC, the “PLATELET COUNT” value [3] was 1344.67 x10E3/uL and the “ALANINE AMINOTRANSFERASE” value [3] was 54.67 u/L. The ALBUMIN [3] was 4.33 G/DL, the “ALKALINE PHOSPHATASE” value [3] was 353 u/L and the “ASPARTATE AMINOTRANSFERASE” value [3] was 75.67 u/L. For the same compound, the “BLOOD UREA NITROGEN” value [3] was 16.33 mg/dL, the “CARBON DIOXIDE” value [3] was 29.33 mmol/L and the CHLORIDE [3] was 103.33 MEQ/L. The CHOLESTEROL [3] was 81 mg/dL, the “CREATINE PHOSPHOKINASE” value [3] was 410.67 u/L and the CREATININE [3] was 0.19 mg/dL. For the same compound, the GLUCOSE [3] was 200.33 mg/dL, the “LACTATE DEHYDROGENASE” value [3] was 220.67 u/L and the LIPASE [3] was 11 u/L. For the same compound, the PHOSPHORUS [3] was 11.43 mg/dL, the POTASSIUM [3] was 6.26 MEQ/L and the SODIUM [3] was 144.07 MEQ/L. For the same compound, the “TOTAL BILIRUBIN” value [3] was 0.17 mg/dL, the “TOTAL PROTEIN” value [3] was 6.43 G/DL and the “URIC ACID” value [3] was 2.13 mg/dL.

Reference: ChEMBL document CHEMBL3885881, “DrugMatrix”
